Among the data in PubChem BioAssay AID328 (DTP/NCI, 2004) are T/C values, retold here.

“And” between values parts separate entries of the source, which are not always exact repeats. Equal entries are not always repeated. Inconclusive results and toxic doses are left out.

The assay has as its system BDF1 mice, P388 leukemia ip, median survival T/C. The assay can be described thus: NCI In Vivo Anticancer Drug Screen. Data for tumor model P388 Leukemia (intraperitoneal) in B6D2F1 (BDF1) mice. As to conditions: endpoint: median survival time, higher = longer survival. In a few lines:
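Steps: implant the tumour, treat one group with compound and another with vehicle, record survival, then divide treated by control.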

[1] abbreviates: dose: 100.0 mg/kg/injection, schedule: Q01DX009 (ip), vehicle: other.
Setting [2] is: dose: 200.0 mg/kg/injection, schedule: Q01DX009 (ip), vehicle: other.
Setting [3] is: dose: 400.0 mg/kg/injection, schedule: Q01DX009 (ip), vehicle: other.
The mark [4] stands for this setting: dose: 50.0 mg/kg/injection, schedule: Q01DX009 (ip), vehicle: saline.
[5] abbreviates: dose: 200.0 mg/kg/injection, schedule: Q01DX009 (ip), vehicle: saline.
The mark [6] stands for this setting: dose: 50.0 mg/kg/injection, schedule: Q01DX009 (ip), vehicle: saline with Tween-80.
[7] abbreviates: dose: 100.0 mg/kg/injection, schedule: Q01DX009 (ip), vehicle: saline with Tween-80.
Where [8] appears, read: dose: 100.0 mg/kg/injection, schedule: Q04DX003 (ip), vehicle: saline with Tween-80.
[9] abbreviates: dose: 200.0 mg/kg/injection, schedule: Q01DX009 (ip), vehicle: saline with Tween-80.
Where [10] appears, read: dose: 200.0 mg/kg/injection, schedule: Q04DX003 (ip), vehicle: saline with Tween-80.
Setting [11] is: dose: 400.0 mg/kg/injection, schedule: Q04DX003 (ip), vehicle: saline with Tween-80.
The mark [12] stands for this setting: dose: 100.0 mg/kg/injection, schedule: Q01DX009 (ip), vehicle: saline.
[13] abbreviates: dose: 100.0 mg/kg/injection, schedule: Q04DX003 (ip), vehicle: saline.
Setting [14] is: dose: 200.0 mg/kg/injection, schedule: Q04DX003 (ip), vehicle: saline.
Where [15] appears, read: dose: 400.0 mg/kg/injection, schedule: Q04DX003 (ip), vehicle: saline.
[16] abbreviates: dose: 400.0 mg/kg/injection, schedule: Q01DX009 (ip), vehicle: saline with Tween-80.

Regarding `COP(=O)(O)/C(C)=N/NS(=O)(=O)c1ccc(C)cc1`, the T/C (dose: 25.0 mg/kg/injection, schedule: Q01DX009 (ip), vehicle: other) was 100 % of control; the T/C (dose: 50.0 mg/kg/injection, schedule: Q01DX009 (ip), vehicle: other) is 103 % of control; the T/C under setting [1] is 100 % of control; the T/C under setting [2] was 100 % of control; the T/C under setting [3] was 102 % of control.

For the compound `CN(C)CC(Cl)CCl` (centres undefined), the T/C was 103 % of control and 118 % of control under setting [4]; 178 % of control (dose: 178.0 mg/kg/injection, schedule: Q01DX009 (ip), vehicle: saline); 118 % of control and 168 % of control and 209 % of control under setting [5]; 190 % of control (dose: 266.0 mg/kg/injection, schedule: Q01DX009 (ip), vehicle: saline); 226 % of control and 200 % of control (dose: 400.0 mg/kg/injection, schedule: Q01DX009 (ip), vehicle: saline).

Turning to `CC/C(=C(\CC)c1ccc(OC)cc1)c1ccc(OC)cc1`, the T/C under setting [6] was 90 % of control; the T/C under setting [7] was 90 % of control; the T/C under setting [8] was 86 % of control; the T/C under setting [9] was 90 % of control; the T/C under setting [10] is 90 % of control; the T/C under setting [11] was 95 % of control.

As to `COC(=O)C(C)C(C)=O` (centres undefined), the T/C is, setting by setting: (dose: 100.0 mg/kg/injection, schedule: Q04DX003 (sc), vehicle: olive oil, sesame oil, peanut oil) 100 % of control; (dose: 200.0 mg/kg/injection, schedule: Q04DX003 (sc), vehicle: olive oil, sesame oil, peanut oil) 104 % of control; (dose: 400.0 mg/kg/injection, schedule: Q04DX003 (sc), vehicle: olive oil, sesame oil, peanut oil) 100 % of control.

`OCC1OC(n2cnc3c(=S)nc[nH]c32)C(O)C1O` (centres undefined): the T/C is, setting by setting: (dose: 20.0 mg/kg/injection, schedule: Q01DX010 (ip), vehicle: saline) 90 % of control; (dose: 40.0 mg/kg/injection, schedule: Q01DX010 (ip), vehicle: saline) 100 % of control; (dose: 80.0 mg/kg/injection, schedule: Q01DX010 (ip), vehicle: saline) 100 % of control; (dose: 160.0 mg/kg/injection, schedule: Q01DX010 (ip), vehicle: saline) 95 % of control.

In the case of `Cc1cc(N(C)C)ccc1/C=C/c1ccnc2ccccc12`, the T/C is, setting by setting: (dose: 100.0 mg/kg/injection, schedule: Q04DX002 (ip), vehicle: saline with Tween-80) 117 % of control; (dose: 200.0 mg/kg/injection, schedule: Q04DX002 (ip), vehicle: saline with Tween-80) 107 % of control.

Consider `CCCCOCCN1CCN(CCCN2c3ccccc3Sc3ccc(C(F)(F)F)cc32)CC1`, for which the T/C is 111 % of control (dose: 12.5 mg/kg/injection, schedule: Q04DX003 (ip), vehicle: saline); 112 % of control (dose: 25.0 mg/kg/injection, schedule: Q04DX003 (ip), vehicle: saline); 153 % of control (dose: 50.0 mg/kg/injection, schedule: Q04DX003 (ip), vehicle: saline).

Turning to `CC(O)C(F)(F)C(F)(F)C(F)(F)C(C)O` (centres undefined), the T/C reads like this: under setting [4], 90 % of control; under setting [12], 104 % of control; (dose: 100.0 mg/kg/injection, schedule: Q04DX003 (ip), vehicle: saline sonified) 116 % of control; under setting [5], 104 % of control; (dose: 200.0 mg/kg/injection, schedule: Q04DX003 (ip), vehicle: saline sonified) 94 % of control; (dose: 400.0 mg/kg/injection, schedule: Q04DX003 (ip), vehicle: saline sonified) 116 % of control.

On to `CCN(/C=C/C=C1C(=O)N(C)C(=O)N(C)C1=O)CC`, for which the T/C under setting [4] is 100 % of control, the T/C under setting [12] is 102 % of control and the T/C under setting [5] was 100 % of control.

As to `CC1=NNC(=O)/C1=C\c1ccccc1`, the T/C (dose: 25.0 mg/kg/injection, schedule: Q01DX009 (ip), vehicle: saline with Tween-80) is 103 % of control; the T/C under setting [6] is 99 % of control; the T/C under setting [7] is 108 % of control.

For the compound `NS(=O)(=O)c1ccc(N=Nc2nc3ncnc(SCc4cccs4)c3[nH]2)cc1`, the T/C is 95 % of control under setting [1]; 104 % of control under setting [13]; 118 % of control under setting [2]; 104 % of control under setting [14]; 86 % of control under setting [3]; 108 % of control under setting [15].

Regarding `O=S1(=O)C=C(c2ccccc2)C(c2ccccc2)=C1`, the T/C was 104 % of control (dose: 22.0 mg/kg/injection, schedule: Q04DX003 (ip), vehicle: saline); 113 % of control (dose: 33.0 mg/kg/injection, schedule: Q04DX003 (ip), vehicle: saline); 118 % of control (dose: 50.0 mg/kg/injection, schedule: Q04DX003 (ip), vehicle: saline sonified); 150 % of control (dose: 75.0 mg/kg/injection, schedule: Q04DX003 (ip), vehicle: saline sonified); 122 % of control (dose: 75.0 mg/kg/injection, schedule: Q04DX003 (ip), vehicle: saline).

For the compound `N#Cc1c(SCc2ccc(Cl)cc2)nsc1Nc1ccc(Cl)cc1`, under setting [6], the T/C is 108 % of control.

On to `COc1ccccc1C1(O)c2ccccc2Sc2cccc(OC)c21` (centres undefined), for which the T/C by setting is: under setting [7], 104 % of control; under setting [9], 100 % of control; under setting [16], 95 % of control.

For the compound `COc1cccc(CCNC(=O)CC#N)c1`, the T/C was 100 % of control under setting [7]; 110 % of control under setting [8]; 110 % of control under setting [9]; 100 % of control under setting [10]; 100 % of control under setting [16]; 100 % of control under setting [11].

`NCCCC(=O)O`: the T/C is 100 % of control (dose: 100.0 mg/kg/injection, schedule: Q01DX001 (ip), vehicle: saline); 109 % of control under setting [13]; 100 % of control (dose: 200.0 mg/kg/injection, schedule: Q01DX001 (ip), vehicle: saline); 86 % of control under setting [14]; 90 % of control (dose: 400.0 mg/kg/injection, schedule: Q01DX001 (ip), vehicle: saline); 118 % of control under setting [15].

As to `BrCCN(CCBr)c1cccc(/C=C/c2ccccc2)c1`, the T/C runs as follows: (dose: 50.0 mg/kg/injection, schedule: Q01DX009 (ip), vehicle: Klucel (hydroxypropylcellulose) (HPC)) 99 % of control; (dose: 100.0 mg/kg/injection, schedule: Q01DX009 (ip), vehicle: Klucel (hydroxypropylcellulose) (HPC)) 101 % of control; (dose: 200.0 mg/kg/injection, schedule: Q01DX009 (ip), vehicle: Klucel (hydroxypropylcellulose) (HPC)) 114 % of control.

As to `CN[C@H]1CCc2cc(OC)c(OC)c(OC)c2-c2ccc(OC)c(=O)cc21`, the T/C is 104 % of control (dose: 0.63 mg/kg/injection, schedule: Q01DX010 (ip), vehicle: saline); 117 % of control (dose: 1.25 mg/kg/injection, schedule: Q01DX009 (ip), vehicle: saline); 122 % of control (dose: 1.25 mg/kg/injection, schedule: Q01DX010 (ip), vehicle: saline); 122 % of control (dose: 2.5 mg/kg/injection, schedule: Q01DX010 (ip), vehicle: saline); 150 % of control (dose: 5.0 mg/kg/injection, schedule: Q01DX010 (ip), vehicle: saline); 93 % of control (dose: 10.0 mg/kg/injection, schedule: Q01DX009 (ip), vehicle: saline).

For the compound `O=c1[nH]nc(NCCO)c2ccccc12`, the T/C is, setting by setting: under setting [6], 112 % of control; under setting [7], 91 % of control; under setting [9], 102 % of control.
